Data reported in patent publication US9579314B2 (priority 2015, dated 2017).

Tests used:
Human M3 receptor = Human M3 receptor (Homo sapiens, UniProt P20309); conditions: read-out: M3 binding affinity
Human β2 adrenoceptor = Human β2 adrenoceptor (Homo sapiens, UniProt P07550); conditions: read-out: B2 binding affinity
Chain of Human β2 adrenoceptor (P07550 whole entry): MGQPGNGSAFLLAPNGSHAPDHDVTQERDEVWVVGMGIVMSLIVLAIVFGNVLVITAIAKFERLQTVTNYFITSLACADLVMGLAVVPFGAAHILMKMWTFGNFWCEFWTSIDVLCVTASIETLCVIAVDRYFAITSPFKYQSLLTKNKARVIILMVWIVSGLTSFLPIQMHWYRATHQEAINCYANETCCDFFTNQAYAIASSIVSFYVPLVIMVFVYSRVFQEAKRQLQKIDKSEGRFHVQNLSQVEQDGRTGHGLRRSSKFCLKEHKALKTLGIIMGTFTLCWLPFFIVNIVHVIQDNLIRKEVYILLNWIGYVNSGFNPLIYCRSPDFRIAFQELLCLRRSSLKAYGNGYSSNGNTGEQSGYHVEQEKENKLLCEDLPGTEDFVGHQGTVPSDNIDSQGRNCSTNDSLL

Chain of Human M3 receptor (P20309 whole entry): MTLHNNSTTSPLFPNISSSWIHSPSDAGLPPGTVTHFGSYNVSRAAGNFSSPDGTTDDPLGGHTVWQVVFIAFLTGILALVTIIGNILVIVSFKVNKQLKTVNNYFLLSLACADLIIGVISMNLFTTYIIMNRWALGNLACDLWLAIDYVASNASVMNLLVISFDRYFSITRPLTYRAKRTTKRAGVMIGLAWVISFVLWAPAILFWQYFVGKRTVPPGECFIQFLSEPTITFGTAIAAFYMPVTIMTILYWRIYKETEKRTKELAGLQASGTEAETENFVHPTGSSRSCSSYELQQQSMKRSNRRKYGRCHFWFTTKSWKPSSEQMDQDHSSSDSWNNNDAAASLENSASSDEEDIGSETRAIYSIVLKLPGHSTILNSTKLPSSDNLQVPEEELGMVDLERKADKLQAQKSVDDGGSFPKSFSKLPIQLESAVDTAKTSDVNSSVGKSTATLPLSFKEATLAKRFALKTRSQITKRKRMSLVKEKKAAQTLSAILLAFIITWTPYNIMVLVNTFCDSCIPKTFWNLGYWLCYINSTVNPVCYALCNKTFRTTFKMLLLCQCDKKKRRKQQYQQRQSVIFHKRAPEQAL

| SMILES | IC50 (Human M3 receptor) | IC50 (Human β2 adrenoceptor) |
| --- | --- | --- |
| O=C(COc1cccc([C@](O)(C(=O)OCC2CCN(Cc3ccccc3)CC2)c2ccccc2)c1)N[C@H]1C[C@H](NC(=O)c2ccc(CNC[C@H](O)c3ccc(O)c4[nH]c(=O)ccc34)nc2)C1 [Compound 145, (1-benzylpiperidin-4-yl)methyl (S)-2-hydroxy-2-(3-(2-(((1R,3S)-3-(6-((((R)-2-hydroxy-2-(8-hydroxy-2-oxo-1,2-dihydroquinolin-5-yl)ethyl)amino)methyl)nicotinamido)cyclobutyl)amino)-2-oxoethoxy)phenyl)-2-phenylacetate] | 0.3 to 3 nM | 0.3 to 3 nM |
| O=C(COc1cccc([C@](O)(C(=O)OCC2CCN(Cc3ccccc3)CC2)c2ccccc2)c1)N[C@H]1C[C@H](NC(=O)Cc2ccc(CNC[C@H](O)c3ccc(O)c4[nH]c(=O)ccc34)cc2)C1 [Compound 146, (1-benzylpiperidin-4-yl)methyl (S)-2-hydroxy-2-(3-(2-(((1R,3S)-3-(2-(4-((((R)-2-hydroxy-2-(8-hydroxy-2-oxo-1,2-dihydroquinolin-5-yl)ethyl)amino)methyl)phenyl)acetamido)cyclobutyl)amino)-2-oxoethoxy)phenyl)-2-phenylacetate] | 0.3 to 3 nM | > 3 nM |
| O=C(COc1cccc([C@](O)(C(=O)OCC2CCN(Cc3ccccc3)CC2)c2ccccc2)c1)N1CC(C(=O)N2CCC(CNC[C@H](O)c3ccc(O)c4[nH]c(=O)ccc34)CC2)C1 [Compound 147, (1-Benzylpiperidin-4-yl)methyl (S)-2-hydroxy-2-(3-(2-(3-(4-((((R)-2-hydroxy-2-(8-hydroxy-2-oxo-1,2-dihydroquinolin-5-yl)ethyl)amino)methyl)piperidine-1-carbonyl)azetidin-1-yl)-2-oxoethoxy)phenyl)-2-phenylacetate] | 0.3 to 3 nM | < 0.3 nM |
| O=C(COc1cccc([C@](O)(C(=O)OCC2CCN(Cc3ccccc3)CC2)c2ccccc2)c1)N1CCC(C(=O)N2CCC(CNC[C@H](O)c3ccc(O)c4[nH]c(=O)ccc34)CC2)CC1 [Compound 148, (1-benzylpiperidin-4-yl)methyl (S)-2-hydroxy-2-(3-(2-(4-(4-((((R)-2-hydroxy-2-(8-hydroxy-2-oxo-1,2-dihydroquinolin-5-yl)ethyl)amino)methyl)piperidine-1-carbonyl)piperidin-1-yl)-2-oxoethoxy)phenyl)-2-phenylacetate] | 0.3 to 3 nM | < 0.3 nM |
| O=C(COc1cccc([C@](O)(C(=O)OCC2CCN(Cc3ccccc3)CC2)c2ccccc2)c1)N[C@H]1CC[C@H](C(=O)N2CCC(CNC[C@H](O)c3ccc(O)c4[nH]c(=O)ccc34)CC2)CC1 [Compound 149, (1-benzylpiperidin-4-yl)methyl (S)-2-hydroxy-2-(3-(2-(((1R,4S)-4-(4-((((R)-2-hydroxy-2-(8-hydroxy-2-oxo-1,2-dihydroquinolin-5-yl)ethyl)amino)methyl)piperidine-1-carbonyl)cyclohexyl)amino)-2-oxoethoxy)phenyl)-2-phenylacetate] | < 0.3 nM | 0.3 to 3 nM |
| O=C(COc1cccc([C@](O)(C(=O)OCC2CCN(Cc3ccccc3)CC2)c2ccccc2)c1)NCC(=O)N1CCC(CNC[C@H](O)c2ccc(O)c3[nH]c(=O)ccc23)CC1 [Compound 150, (1-benzylpiperidin-4-yl)methyl (S)-2-hydroxy-2-(3-(2-((2-(4-((((R)-2-hydroxy-2-(8-hydroxy-2-oxo-1,2-dihydroquinolin-5-yl)ethyl)amino)methyl)piperidin-1-yl)-2-oxoethyl)amino)-2-oxoethoxy)phenyl)-2-phenylacetate] | < 0.3 nM | < 0.3 nM |
| O=C(c1ccc(CCNC[C@H](O)c2ccc(O)c3[nH]c(=O)ccc23)cc1)N1CCC(C(=O)N2CCC(COc3cccc([C@](O)(C(=O)OCC4CCN(Cc5ccccc5)CC4)c4ccccc4)c3)CC2)CC1 [Compound 151, (1-Benzylpiperidin-4-yl)methyl (S)-2-hydroxy-2-(3-((1-(1-(4-(2-(((R)-2-hydroxy-2-(8-hydroxy-2-oxo-1,2-dihydroquinolin-5-yl)ethyl)amino)ethyl)benzoyl)piperidine-4-carbonyl)piperidin-4-yl)methoxy)phenyl)-2-phenylacetate] | < 0.3 nM | < 0.3 nM |
| O=C(NCC(=O)N1CCC(COc2cccc([C@](O)(C(=O)OCC3CCN(Cc4ccccc4)CC3)c3ccccc3)c2)CC1)c1ccc(CCNC[C@H](O)c2ccc(O)c3[nH]c(=O)ccc23)cc1 [Compound 152, (1-benzylpiperidin-4-yl)methyl (S)-2-hydroxy-2-(3-((1-((4-(2-(((R)-2-hydroxy-2-(8-hydroxy-2-oxo-1,2-dihydroquinolin-5-yl)ethyl)amino)ethyl)benzoyl)glycyl)piperidin-4-yl)methoxy)phenyl)-2-phenylacetate] | < 0.3 nM | 0.3 to 3 nM |
| COc1cc(C(=O)NCC(=O)N2CCC(COc3cccc([C@](O)(C(=O)OCC4CCN(Cc5ccccc5)CC4)c4ccccc4)c3)CC2)ccc1CNC[C@H](O)c1ccc(O)c2[nH]c(=O)ccc12 [Compound 153, (1-benzylpiperidin-4-yl)methyl (S)-2-hydroxy-2-(3-((1-((4-((((R)-2-hydroxy-2-(8-hydroxy-2-oxo-1,2-dihydroquinolin-5-yl)ethyl)amino)methyl)-3-methoxybenzoyl)glycyl)piperidin-4-yl)methoxy)phenyl)-2-phenylacetate] | < 0.3 nM | < 0.3 nM |
| O=C(NCC(=O)N1CCC(COc2cccc([C@](O)(C(=O)OCC3CCN(Cc4ccccc4)CC3)c3ccccc3)c2)CC1)c1ccc(CNC[C@H](O)c2ccc(O)c3[nH]c(=O)ccc23)cc1 [Compound 154, (1-benzylpiperidin-4-yl)methyl (S)-2-hydroxy-2-(3-((1-((4-((((R)-2-hydroxy-2-(8-hydroxy-2-oxo-1,2-dihydroquinolin-5-yl)ethyl)amino)methyl)benzoyl)glycyl)piperidin-4-yl)methoxy)phenyl)-2-phenylacetate] | < 0.3 nM | < 0.3 nM |
| COc1cc(CNC[C@H](O)c2ccc(O)c3[nH]c(=O)ccc23)ccc1C(=O)NCC(=O)N1CCC(COc2cccc([C@](O)(C(=O)OCC3CCN(Cc4ccccc4)CC3)c3ccccc3)c2)CC1 [Compound 155, (1-benzylpiperidin-4-yl)methyl (S)-2-hydroxy-2-(3-((1-((4-((((R)-2-hydroxy-2-(8-hydroxy-2-oxo-1,2-dihydroquinolin-5-yl)ethyl)amino)methyl)-2-methoxybenzoyl)glycyl)piperidin-4-yl)methoxy)phenyl)-2-phenylacetate] | 0.3 to 3 nM | < 0.3 nM |
| O=C(c1ccc(C(=O)N2CCC(COc3cccc([C@](O)(C(=O)OCC4CCN(Cc5ccccc5)CC4)c4ccccc4)c3)CC2)s1)N1CCC(CNC[C@H](O)c2ccc(O)c3[nH]c(=O)ccc23)CC1 [Compound 156, (1-Benzylpiperidin-4-yl)methyl (S)-2-hydroxy-2-(3-((1-(5-(4-((((R)-2-hydroxy-2-(8-hydroxy-2-oxo-1,2-dihydroquinolin-5-yl)ethyl)amino)methyl)piperidine-1-carbonyl)thiophene-2-carbonyl)piperidin-4-yl)methoxy)phenyl)-2-phenylacetate] | < 0.3 nM | < 0.3 nM |
| O=C(OCC1CCN(Cc2ccccc2)CC1)[C@](O)(c1ccccc1)c1cccc(OCC2CCN(C(=O)[C@H]3CC[C@H](C(=O)N4CCC(CNC[C@H](O)c5ccc(O)c6[nH]c(=O)ccc56)CC4)CC3)CC2)c1 [Compound 157, (1-benzylpiperidin-4-yl)methyl (S)-2-hydroxy-2-(3-((1-((1R,4S)-4-(4-((((R)-2-hydroxy-2-(8-hydroxy-2-oxo-1,2-dihydroquinolin-5-yl)ethyl)amino)methyl)piperidine-1-carbonyl)cyclohexane-1-carbonyl)piperidin-4-yl)methoxy)phenyl)-2-phenylacetate] | 0.3 to 3 nM | > 3 nM |
| O=C(NCCCOc1cccc([C@](O)(C(=O)OCC2CCN(C3CCC3)CC2)c2ccccc2)c1)c1ccc(CNC[C@H](O)c2ccc(O)c3[nH]c(=O)ccc23)cc1 [Compound 161, (1-cyclobutylpiperidin-4-yl)methyl (S)-2-hydroxy-2-(3-(3-(4-((((R)-2-hydroxy-2-(8-hydroxy-2-oxo-1,2-dihydroquinolin-5-yl)ethyl)amino)methyl)benzamido)propoxy)phenyl)-2-phenylacetate] | 0.3 to 3 nM | < 0.3 nM |
| CN1CCC(COC(=O)[C@](O)(c2ccccc2)c2cccc(OCCCNC(=O)c3ccc(CNC[C@H](O)c4ccc(O)c5[nH]c(=O)ccc45)cc3)c2)CC1 [Compound 162, (1-methylpiperidin-4-yl)methyl (S)-2-hydroxy-2-(3-(3-(4-((((R)-2-hydroxy-2-(8-hydroxy-2-oxo-1,2-dihydroquinolin-5-yl)ethyl)amino)methyl)benzamido)propoxy)phenyl)-2-phenylacetate] | 0.3 to 3 nM | < 0.3 nM |
